# Measurements: article PMC6100703, “Rapid, simple, and clinically applicable high-performance liquid chromatography method for clinical determination of plasma colistin concentrations” (Journal of Pharmaceutical Health Care and Sciences, 2018)
# Where two headings read alike, the source gives them in different places.
# Tests used:
# [1] = Derivative stability (FMOC-Cl derivatives in eluted solution); assay type: physicochemical; conditions: mean ± SD; for Refrigerated, recovery relative to freshly prepared samples: 4 °C; for Refrigerated, recovery relative to freshly prepared samples / Room temperature, recovery relative to freshly prepared samples / Frozen, recovery relative to freshly prepared samples: 7 d, HPLC-fluorescence peak area; for Refrigerated, recovery relative to freshly prepared samples / Frozen, recovery relative to freshly prepared samples: dark; for Room temperature, recovery relative to freshly prepared samples: 25 ± 1 °C, normal fluorescent light; for Freeze-thaw, recovery relative to freshly prepared samples: three cycles −23 °C to room temperature on consecutive days; for Frozen, recovery relative to freshly prepared samples: −23 °C, closed glass test tubes
# Experimental: The derivative stabilities of the samples containing 0.10 and 8.0 μg/mL of the standard colistin solution and the internal standard were evaluated at − 23 (frozen), 4 (refrigerated), and 25 ± 1 °C (room temperature) over 7 d. Freeze-thaw stability was assessed after three complete freeze-thaw cycles (− 23 °C to room temperature) on consecutive days. The stability of the target compounds was presented as the recovery (%) relative to the freshly prepared samples. The solutions at room temperature were exposed to normal fluorescent light, while the frozen and refrigerated samples were stored in a dark refrigerator and were exposed to light only during sampling. The storage temperatures were closely monitored throughout the study.
# [2] = test system: MDRP with metallo-beta-lactamase (multidrug-resistant Pseudomonas aeruginosa); test: Minimum inhibitory concentrations for the blood culture isolate of the patient; assay type: cell-based; conditions: for MIC: Pseudomonas aeruginosa, read-out: minimum inhibitory concentration
# [3] = Plasma colistin concentration of a haemodialysis patient on CMS therapy (HPLC with fluorescence detection); assay type: in vivo, human; conditions: K2-EDTA plasma; for colistin concentration in plasma: HD patient
# Experimental: HPLC analysis was performed at 25 ± 1 °C under isocratic conditions. All measurements were carried out at excitation and emission wavelengths of 260 nm and 315 nm, respectively, and the column temperature was maintained at 40 °C. The mobile phase consisted of a mixture of acetonitrile/tetrahydrofuran/distilled water (50:14:20, v/v/v) and was delivered at a flow rate of 1.6 mL/min. The sample injection volume was 50 μL.
# Initially, the colistin and the internal standard (netilmicin sulfate, 20 μL) stock solutions were added to a portion of serum (200 μL). Following the addition of methanol (25 μL) and 10% trichloroacetic acid (25 μL) to the sample, it was vortexed for 10 s prior to centrifugation at 13,000 rpm for 5 min. The supernatant was then placed in an additional centrifuge tube and mixed with a 1 M sodium hydroxide solution (10 μL). The sample solution was loaded onto the solid-phase extraction (SPE) cartridge, which had been previously conditioned according to the following procedure.
# SPE C18 cartridges (55 μm, 100 mg/mL; Phenomenex, Torrance, USA) were conditioned using acetone (1 mL) and methanol (1 mL) and equilibrated with 1% carbonate buffer (1 mL). The sample was then applied to the wet cartridge. After passing the sample through the cartridge, it was rinsed with methanol (1 mL) and carbonate buffer (1 mL), followed by a 100 mM FMOC-Cl solution (60 μL) and 90% methanol (3 mL). The derivatives were then eluted into a glass culture tube using acetone (500 μL). The eluted solution was mixed with a 0.6 M boric acid solution (100 μL) prior to vortex-mixing for 10 s, and then the obtained sample was injected into the HPLC system. All procedures were conducted at 25 ± 1 °C.
# (§1) A patient (weight 52 kg, height 153.2 cm) with antineutrophilic cytoplasmic antibody-positive vasculitis undergoing renal replacement (intermittent haemodialysis, HD) was admitted to the hospital for rituximab and steroid pulse therapy. The HD patient’s disease had been complicated by Pneumocystis jiroveci pneumonia, herpes zoster, and MDRP infections. […] With the preliminary information of positive blood cultures, empiric treatment with cefepime (1 g every 12 h) was performed over 5 d. […] In addition, the following treatment parameters were employed: dialysate flow rate, 500 mL/min; blood flow rate, 100 mL/min; membrane surface area, 1.5 m^2; membrane type, APS-15MD New; HD frequency, twice per week; and session duration, 3 h. Samples were collected immediately prior to a dose or immediately prior to the next dose if CMS was not being administered every 24 h. The actual times of CMS administration and blood sampling were recorded. Samples were collected in potassium (K)2-ethylenediaminetetraacetic acid (EDTA)-containing tubes and centrifuged for 15 min within 2 h of collection. The resulting plasma sample was measured on the same day as blood collection. The HD clearance (CLHD) for colistin was calculated every hour during the start and end of the HD session as:
# CMS was administered to the HD patient over 7 d (days 6–12), and six samples of blood were collected between days 7 and 12 of CMS therapy (Fig. 3). The initial sample was collected on day 7 approximately 20 h after the administration of CMS. All other samples were collected ~ 24 h after each dose. On the day of dialysis, the blood samples were collected at the start and end of the HD session.
# [4] = human, in vivo
# Experimental: as §1, with “as: […]” for “as:”
# [5] = design: method as in 2 sources, ref Sorlí et al. [24] ||| ref Garonzik et al. [25]; conditions: cited from earlier work
# [6] = test system: multidrug-resistant Pseudomonas aeruginosa infection; conditions: HD patient with MDRP infection; CMS 75 mg every 24 h after loading dose 250 mg, in combination with meropenem 1 g every 24 h; after a few days
# Experimental: as §1, with “as: […]” for “as:”
# [7] = blood cultures from two peripheral vein sites of the HD patient, MDRP with metallo-beta-lactamase
# [8] = critically ill patients, including those on HD and continuous renal replacement, ref Garonzik et al. [25]
# [9] = patients suffering from nephrotoxicity, ref Sorlí et al. [24]
molecule,measurement,setting,value
"CCN[C@@H]1C[C@H](N)[C@@H](O[C@H]2OC(CN)=CC[C@H]2N)[C@H](O)[C@H]1O[C@H]1OC[C@](C)(O)[C@H](NC)[C@H]1O [Netilmicin, netilmicin]","Refrigerated, recovery relative to freshly prepared samples",[1]; 0.10 μg/mL,104 ± 2%
same,"Room temperature, recovery relative to freshly prepared samples",[1]; 0.10 μg/mL,102 ± 3%
same,"Freeze-thaw, recovery relative to freshly prepared samples",[1]; 0.10 μg/mL,98 ± 3%
same,"Frozen, recovery relative to freshly prepared samples",[1]; 0.10 μg/mL,102 ± 3%
same,"Refrigerated, recovery relative to freshly prepared samples",[1]; 8.00 μg/mL,101 ± 2%
same,"Room temperature, recovery relative to freshly prepared samples",[1]; 8.00 μg/mL,103 ± 2%
same,"Freeze-thaw, recovery relative to freshly prepared samples",[1]; 8.00 μg/mL,102 ± 2%
same,"Frozen, recovery relative to freshly prepared samples",[1]; 8.00 μg/mL,103 ± 3%
NCC[C@H](O)C(=O)N[C@@H]1C[C@H](N)[C@@H](O[C@H]2O[C@H](CN)[C@@H](O)[C@H](O)[C@H]2O)[C@H](O)[C@H]1O[C@H]1O[C@H](CO)[C@@H](O)[C@H](N)[C@H]1O [amikacin],MIC,[2]; [7],> 16 µg/mL
C[C@H]1[C@H](NC(=O)/C(=N\OC(C)(C)C(=O)O)c2csc(N)n2)C(=O)N1S(=O)(=O)O [aztreonam],MIC,[2],16 µg/mL
CO/N=C(\C(=O)N[C@@H]1C(=O)N2C(C(=O)[O-])=C(C[N+]3(C)CCCC3)CS[C@H]12)c1csc(N)n1 [cefepime],MIC,[2],> 32 µg/mL
CC(C)(O/N=C(\C(=O)N[C@@H]1C(=O)N2C(C(=O)[O-])=C(C[n+]3ccccc3)CS[C@H]12)c1csc(N)n1)C(=O)O [ceftazidime],MIC,[2]; [7],> 32 µg/mL
O=C(O)c1cn(C2CC2)c2cc(N3CCNCC3)c(F)cc2c1=O [ciprofloxacin],MIC,[2],> 4 µg/mL
CNC(C)C1CCC(N)C(OC2C(N)CC(N)C(OC3OCC(C)(O)C(NC)C3O)C2O)O1 (stereo not drawn) [gentamicin],MIC,[2]; [7],> 16 µg/mL
C[C@@H](O)[C@H]1C(=O)N2C(C(=O)O)=C(S[C@@H]3CN[C@H](C(=O)N(C)C)C3)[C@H](C)[C@H]12 [meropenem],MIC,[2]; [7],> 8 µg/mL
CN(C)c1ccc(O)c2c1C[C@H]1C[C@H]3[C@H](N(C)C)C(O)=C(C(N)=O)C(=O)[C@@]3(O)C(O)=C1C2=O [minocycline],MIC,[2]; [7],> 8 µg/mL
CCN1CCN(C(=O)N[C@@H](C(=O)N[C@@H]2C(=O)N3[C@@H]2SC(C)(C)[C@@H]3C(=O)O)c2ccccc2)C(=O)C1=O [piperacillin],MIC,[2]; [7],8 µg/mL
colistin,colistin concentration in plasma,"[3]; day 7, approximately 20 h after administration of CMS (loading dose 250 mg)",7.85 µg/mL
same,colistin concentration in plasma,"[3]; day 8, ~24 h after dose, CMS 75 mg every 24 h",5.95 µg/mL
same,colistin concentration in plasma,"[3]; day 9, ~24 h after dose, CMS 75 mg every 24 h",3.91 µg/mL
same,colistin concentration in plasma,"[3]; day 12, ~24 h after dose, CMS 75 mg every 24 h",3.70 µg/mL
same,colistin concentration in plasma at the end of the HD session,"[3]; day 10, end of 3 h HD session",2.75 µg/mL
same,colistin concentration in plasma at the start of the HD session,"[3]; day 10, start of 3 h HD session",4.57 µg/mL
same,HD clearance (CLHD),[4],30.7 mL/min
same,"average steady-state concentration of colistin, median",[5]; [8],2.36 µg/mL
same,"average steady-state concentration of colistin, range",[5]; [8],0.48 to 9.38 µg/mL
same,"minimal concentration of colistin, median",[5]; [9],1.18 µg/mL
same,"minimal concentration of colistin, range",[5]; [9],0.16 to 5.99 µg/mL
same,"peak concentration of colistin, median",[5]; [9],1.81 µg/mL
same,"peak concentration of colistin, range",[5]; [9],0.16 to 6.12 µg/mL
same,minimum inhibitory concentration,[2]; [7],≤ 1 µg/mL
colistin A,"Refrigerated, recovery relative to freshly prepared samples",[1]; 0.10 μg/mL,100 ± 1%
same,"Room temperature, recovery relative to freshly prepared samples",[1]; 0.10 μg/mL,102 ± 3%
same,"Freeze-thaw, recovery relative to freshly prepared samples",[1]; 0.10 μg/mL,97 ± 3%
same,"Frozen, recovery relative to freshly prepared samples",[1]; 0.10 μg/mL,105 ± 3%
same,"Refrigerated, recovery relative to freshly prepared samples",[1]; 8.00 μg/mL,100 ± 3%
same,"Room temperature, recovery relative to freshly prepared samples",[1]; 8.00 μg/mL,99 ± 2%
same,"Freeze-thaw, recovery relative to freshly prepared samples",[1]; 8.00 μg/mL,100 ± 2%
same,"Frozen, recovery relative to freshly prepared samples",[1]; 8.00 μg/mL,102 ± 2%
colistin B,"Refrigerated, recovery relative to freshly prepared samples",[1]; 0.10 μg/mL,102 ± 2%
same,"Room temperature, recovery relative to freshly prepared samples",[1]; 0.10 μg/mL,102 ± 2%
same,"Freeze-thaw, recovery relative to freshly prepared samples",[1]; 0.10 μg/mL,102 ± 3%
same,"Frozen, recovery relative to freshly prepared samples",[1]; 0.10 μg/mL,105 ± 2%
same,"Refrigerated, recovery relative to freshly prepared samples",[1]; 8.00 μg/mL,98 ± 3%
same,"Room temperature, recovery relative to freshly prepared samples",[1]; 8.00 μg/mL,101 ± 2%
same,"Freeze-thaw, recovery relative to freshly prepared samples",[1]; 8.00 μg/mL,99 ± 3%
same,"Frozen, recovery relative to freshly prepared samples",[1]; 8.00 μg/mL,100 ± 3%
colistin methanesulfonate [CMS],blood cultures after switching to CMS therapy,[6],negative
